Test results: patent US8927533B2, “Thio derivatives bearing lactams as potent HDAC inhibitors and their uses as medicaments” (SIGMA-TAU Industrie Farmaceutiche Riunite S.p.A., priority 2011, dated 2015)

How the values were obtained:
[1] = system: HCT116 colon cancer; experiment: Antitumour activity, HCT116 xenograft, oral (Example 49); format: in vivo, mice; details: 60 mg/10 ml/kg p.o., PEG200/DMSO/Cremophor EL
Text: (§1) The experiment of example 48 was repeated with another compound on mice animal model developing HCT116 colon cancer as described above or A2780 ovarian cancer, and administering the drugs solubilised in orally in PEG200/DMSO/Cremophor EL (Sigma): 85/10/5 (volume percentage).

[2] = system: A2780 ovarian cancer; experiment: Antitumour activity, A2780 xenograft, oral (Example 49); format: in vivo, mice; details: 110 mg/10 ml/kg p.o., PEG200/DMSO/Cremophor EL
Text: as §1

[3] = system: NCI-H460 non-small cell lung carcinoma cells; experiment: Cytotoxicity, sulphorodamine B, H460; details: Homo sapiens, NCI-H460, read-out: H460 cell line IC50 (μM)
Description: They were allowed to attach and recover for at least 24 h.
The plates were incubated for 24 h at 37° C., after which they were washed 3 times by removal of the supernatant and addition of PBS. The plates were then incubated for further 48 h at 37° C. 200 μl PBS and 50 μl of cold 80% TCA were added and the plates were incubated on ice for at least 1 h. TCA was removed and the plates were washed 3 times by immersion in distilled-water. They were then dried on paper at 40° C. for 5 min. 200 μl of 0.4% sulphorodamine B in 1% acetic acid were added. The plates were incubated at room temperature for further 30 min. Sulphorodamine B was removed, and the plates were washed 3 times by immersion in 1% acetic acid and were dried on paper and at 40° C. for 5 min. Then 200 μl Tris 10 mM were added. The plates were kept under magnetic stirring for 20 min. Cell survival was determined by means of optical density by a Multiskan spectrofluorimeter at 540 nm. The amount of cells killed was calculated as the percentage decrease in sulphorodamine B binding compared to control cultures.

BWL % [1]: 1% | BWL % [2]: 7%
SMILES: CC(=O)SCCCCC[C@H](NC(=O)[C@H]1CCC(=O)N1)C(=O)Nc1ccccc1 [Example 21, Thioacetic acid S—{(S)-6-[((R)-5-oxo-pyrrolidine-2-carbonyl)-amino]-6-phenylcarbamoyl-hexyl}ester]
TVI % [1]: 62% | TVI % [2]: 89% | IC50 [3]: < 0.5 µM
